Data as given in PubChem BioAssay (NCI).
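GI50: concentration for 50% inhibition of growth. At the TGI there is no net growth.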

Experiments:
Test in all cases: DTP human tumour cell line panel, 384-well format
786-0 renal = tested on: 786-0 renal
A498 renal = tested on: A498 renal
A549 NSCLC = tested on: A549 NSCLC
ACHN renal = tested on: ACHN renal
BT-549 breast = tested on: BT-549 breast
CAKI-1 renal = tested on: CAKI-1 renal
CCRF-CEM leukemia = tested on: CCRF-CEM leukemia
COLO 205 colon = tested on: COLO 205 colon
DU-145 prostate = tested on: DU-145 prostate
EKVX NSCLC = tested on: EKVX NSCLC
HCC-2998 colon = tested on: HCC-2998 colon
HCT-15 colon = tested on: HCT-15 colon
HL-60(TB) leukemia = tested on: HL-60(TB) leukemia
HOP-62 NSCLC = tested on: HOP-62 NSCLC
HOP-92 NSCLC = tested on: HOP-92 NSCLC
HS 578T breast = tested on: HS 578T breast
HT29 colon = tested on: HT29 colon
IGROV1 ovarian = tested on: IGROV1 ovarian
K-562 leukemia = tested on: K-562 leukemia
KM12 colon = tested on: KM12 colon
LOX IMVI melanoma = tested on: LOX IMVI melanoma
M14 melanoma = tested on: M14 melanoma
MALME-3M melanoma = tested on: MALME-3M melanoma
MCF7 breast = tested on: MCF7 breast
MDA-MB-231 breast = tested on: MDA-MB-231 breast
MDA-MB-435 melanoma = tested on: MDA-MB-435 melanoma
MDA-MB-468 breast = tested on: MDA-MB-468 breast
MOLT-4 leukemia = tested on: MOLT-4 leukemia
NCI-H226 lung = tested on: NCI-H226 lung
NCI-H23 lung = tested on: NCI-H23 lung
NCI-H322M lung = tested on: NCI-H322M lung
NCI-H460 NSCLC = tested on: NCI-H460 NSCLC
NCI-H522 lung = tested on: NCI-H522 lung
NCI/ADR-RES ovarian = tested on: NCI/ADR-RES ovarian
OVCAR-3 ovarian = tested on: OVCAR-3 ovarian
OVCAR-4 ovarian = tested on: OVCAR-4 ovarian
OVCAR-5 ovarian = tested on: OVCAR-5 ovarian
OVCAR-8 ovarian = tested on: OVCAR-8 ovarian
PC-3 prostate = tested on: PC-3 prostate
RPMI-8226 leukemia = tested on: RPMI-8226 leukemia
RXF 393 renal = tested on: RXF 393 renal
SF-268 CNS = tested on: SF-268 CNS
SF-295 CNS = tested on: SF-295 CNS
SF-539 CNS = tested on: SF-539 CNS
SK-MEL-28 melanoma = tested on: SK-MEL-28 melanoma
SK-MEL-5 melanoma = tested on: SK-MEL-5 melanoma
SK-OV-3 ovarian = tested on: SK-OV-3 ovarian
SN12C renal = tested on: SN12C renal
SNB-19 CNS = tested on: SNB-19 CNS
SNB-75 CNS = tested on: SNB-75 CNS
SR leukemia = tested on: SR leukemia
SW-620 colon = tested on: SW-620 colon
T-47D breast = tested on: T-47D breast
TK-10 renal = tested on: TK-10 renal
UACC-257 melanoma = tested on: UACC-257 melanoma
UACC-62 melanoma = tested on: UACC-62 melanoma
UO-31 renal = tested on: UO-31 renal

O=C(CC1(O)C(=O)Nc2c(Cl)ccc(Cl)c21)c1ccc(C2CC2)cc1 (centres undefined)
GI50 ([…]-0 renal): 377 nM | TGI (786-0 renal): 12000 nM | GI50 (A498 renal): 226 nM | TGI (A498 renal): 10700 nM | GI50 (A549 NSCLC): 546 nM | TGI (A549 NSCLC): 13800 nM | GI50 (ACHN renal): 743 nM | TGI (ACHN renal): 17200 nM | GI50 (BT-549 breast): 49 nM | TGI (BT-549 breast): 2730 nM | GI50 (CAKI-1 renal): 173 nM | TGI (CAKI-1 renal): 15200 nM | GI50 (CCRF-CEM leukemia): 130 nM | TGI (CCRF-CEM leukemia): 262 nM | GI50 (COLO 205 colon): 124 nM | TGI (COLO 205 colon): 448 nM | GI50 (DU-145 prostate): 338 nM | TGI (DU-145 prostate): 2490 nM | GI50 (EKVX NSCLC): 385 nM | TGI (EKVX NSCLC): 16900 nM | GI50 (HCC-2998 colon): 277 nM | TGI (HCC-2998 colon): 4610 nM | GI50 (HCT-15 colon): 51.9 nM | TGI (HCT-15 colon): 2060 nM | GI50 (HL-60(TB) leukemia): 37.7 nM | TGI (HL-60(TB) leukemia): 120 nM | GI50 (HOP-62 NSCLC): 199 nM | TGI (HOP-62 NSCLC): 13400 nM | GI50 (HOP-92 NSCLC): 210 nM | TGI (HOP-92 NSCLC): 11000 nM | GI50 (HS 578T breast): 119 nM | TGI (HS 578T breast): 284 nM | GI50 (HT29 colon): 50.5 nM | TGI (HT29 colon): 248 nM | GI50 (IGROV1 ovarian): 882 nM | TGI (IGROV1 ovarian): 17000 nM | GI50 (K-562 leukemia): 46.2 nM | TGI (K-562 leukemia): 211 nM | GI50 (KM12 colon): 74.7 nM | TGI (KM12 colon): 2770 nM | GI50 (LOX IMVI melanoma): 434 nM | TGI (LOX IMVI melanoma): 4650 nM | GI50 (M14 melanoma): 54 nM | TGI (M14 melanoma): 266 nM | GI50 (MALME-3M melanoma): 61.5 nM | TGI (MALME-3M melanoma): 10300 nM | GI50 (MCF7 breast): 111 nM | TGI (MCF7 breast): 13500 nM | GI50 (MDA-MB-231 breast): 182 nM | TGI (MDA-MB-231 breast): 16300 nM | GI50 (MDA-MB-435 melanoma): 24.5 nM | TGI (MDA-MB-435 melanoma): 59.6 nM | GI50 (MDA-MB-468 breast): 30.2 nM | TGI (MDA-MB-468 breast): 94.4 nM | GI50 (MOLT-4 leukemia): 47.3 nM | TGI (MOLT-4 leukemia): 135 nM | GI50 (NCI-H226 lung): 732 nM | TGI (NCI-H226 lung): 14200 nM | GI50 (NCI-H23 lung): 192 nM | TGI (NCI-H23 lung): 759 nM | GI50 (NCI-H322M lung): 845 nM | TGI (NCI-H322M lung): 18000 nM | GI50 (NCI-H460 NSCLC): 225 nM | TGI (NCI-H460 NSCLC): 611 nM | GI50 (NCI-H522 lung): 45.1 nM | TGI (NCI-H522 lung): 179 nM | GI50 (NCI/ADR-RES ovarian): 69.2 nM | TGI (NCI/ADR-RES ovarian): 276 nM | GI50 (OVCAR-3 ovarian): 73.1 nM | TGI (OVCAR-3 ovarian): 286 nM | GI50 (OVCAR-4 ovarian): 369 nM | TGI (OVCAR-4 ovarian): 7590 nM | GI50 (OVCAR-5 ovarian): 900 nM | TGI (OVCAR-5 ovarian): 17700 nM | GI50 (OVCAR-8 ovarian): 257 nM | TGI (OVCAR-8 ovarian): 1230 nM | GI50 (PC-3 prostate): 372 nM | TGI (PC-3 prostate): 14400 nM | GI50 (RPMI-8226 leukemia): 133 nM | TGI (RPMI-8226 leukemia): 271 nM | GI50 (RXF 393 renal): 155 nM | TGI (RXF 393 renal): 793 nM | GI50 (SF-268 CNS): 387 nM | TGI (SF-268 CNS): 11200 nM | GI50 (SF-295 CNS): 112 nM | TGI (SF-295 CNS): 853 nM | GI50 (SF-539 CNS): 206 nM | TGI (SF-539 CNS): 907 nM | GI50 (SK-MEL-28 melanoma): 221 nM | TGI (SK-MEL-28 melanoma): 18900 nM | GI50 (SK-MEL-5 melanoma): 142 nM | TGI (SK-MEL-5 melanoma): 414 nM | GI50 (SK-OV-3 ovarian): 238 nM | TGI (SK-OV-3 ovarian): 14100 nM | GI50 (SN12C renal): 575 nM | TGI (SN12C renal): 20100 nM | GI50 (SNB-19 CNS): 528 nM | TGI (SNB-19 CNS): 15300 nM | GI50 (SNB-75 CNS): 96.7 nM | TGI (SNB-75 CNS): 3170 nM | GI50 (SR leukemia): 16.9 nM | TGI (SR leukemia): 33.7 nM | GI50 (SW-620 colon): 45.7 nM | TGI (SW-620 colon): 15500 nM | GI50 (T-47D breast): 323 nM | TGI (T-47D breast): 18200 nM | GI50 (TK-10 renal): 10400 nM | TGI (TK-10 renal): 25200 nM | GI50 (UACC-257 melanoma): 280 nM | TGI (UACC-257 melanoma): 2340 nM | GI50 (UACC-62 melanoma): 38.9 nM | TGI (UACC-62 melanoma): 5040 nM | GI50 (UO-31 renal): 10600 nM | TGI (UO-31 renal): 23000 nM
